# From ChEMBL document CHEMBL5154930, “Design, Synthesis, and Biological Evaluations of DOT1L Peptide Mimetics Targeting the Protein-Protein Interactions between DOT1L and MLL-AF9/MLL-ENL” (J Med Chem, 2022)
# Activity calls are given as the source filed them. No cut-off for these calls is given here. Non-standard residues stand in square brackets, D forms with d. Residues, ends and D or L forms follow the SMILES beside them. *: point of attachment. X1 = C[C@H](N*)c1nc2cccc(-c3ccccc3)c2[nH]1; Ala(cPent) = N[C@@H](CC1CCCC1)C(=O)O; Pentanoyl(4-Me) = CC(C)CCC(=O)*; Dap(Me) = CNC[C@H](N)C(=O)O
# Assays:
# MOLM-13 [1] = assay: Down regulation of SKP2 gene in human MOLM-13 cells by RNA-sequencing analysis; assay type: functional, cell-based
# MOLM-13 [2] = assay: Down regulation of DCUN1D1 gene in human MOLM-13 cells by RNA-sequencing analysis; assay type: functional, cell-based
# MOLM-13 [3] = assay: Inhibition of methylation of H3K79 in human MOLM-13 cells assessed as inhibition of methylation at HOXA1 gene cluster by chromatin immunoprecipitation assay; assay type: functional, cell-based
# MOLM-13 [4] = assay: Down regulation of […] gene in human MOLM-13 cells by RNA-sequencing analysis; assay type: functional, cell-based
# MOLM-13 [5] = assay: Inhibition of methylation of H3K79 in human MOLM-13 cells assessed as inhibition of methylation at […] gene cluster by chromatin immunoprecipitation assay; assay type: functional, cell-based
# MOLM-13 [6] = assay: Inhibition of methylation of H3K79 in human MOLM-13 cells assessed as inhibition of methylation at HOXA3 gene cluster by chromatin immunoprecipitation assay; assay type: functional, cell-based
# MOLM-13 [7] = assay: Down regulation of GBE1 gene in human MOLM-13 cells by RNA-sequencing analysis; assay type: functional, cell-based
# MOLM-13 [8] = assay: Inhibition of methylation of H3K79 in human MOLM-13 cells assessed as inhibition of methylation at MEIS1 gene cluster by chromatin immunoprecipitation assay; assay type: functional, cell-based
# MOLM-13 [9] = assay: Inhibition of methylation of H3K79 in human MOLM-13 cells assessed as inhibition of methylation at HOXA6 gene cluster by chromatin immunoprecipitation assay; assay type: functional, cell-based
# MOLM-13 [10] = assay: Induction of apoptosis in human MOLM-13 cells treated for 7 days by Annexin V-FITC/PI staining based flow cytometry analysis; assay type: functional, cell-based; conditions: dose 0.25-1 µM, time 7.0 day
# MOLM-13 [11] = assay: Inhibition of methylation of H3K79 in human MOLM-13 cells assessed as inhibition of methylation at HOXA7 gene cluster by chromatin immunoprecipitation assay; assay type: functional, cell-based
# MOLM-13 [12] = assay: cells; conditions: Homo sapiens, MOLM-13, 192 h
# Description: Anticancer activity against human MOLM-13 cells harbouring MLL-AF9 assessed as inhibition of cell growth treated for 8 days measured by CCK-8 kit method
# MOLM-13 [13] = assay: cells; conditions: Homo sapiens, MOLM-13, 144 h
# Description: Anticancer activity against human MOLM-13 cells harbouring MLL-AF9 assessed as inhibition of cell growth treated for 6 days measured by CCK-8 kit method
# MOLM-13 [14] = assay: Down regulation of MEIS1 gene in human MOLM-13 cells by RNA-sequencing analysis; assay type: functional, cell-based
# MOLM-13 [15] = assay: Down regulation of TUBA1B gene in human MOLM-13 cells by RNA-sequencing analysis; assay type: functional, cell-based
# MOLM-13 [16] = assay: Inhibition of methylation of H3K79 in human MOLM-13 cells assessed as inhibition of methylation at HOXA9 gene cluster by chromatin immunoprecipitation assay; assay type: functional, cell-based
# MOLM-13 [17] = assay: Inhibition of methylation of H3K79 in human MOLM-13 cells assessed as inhibition of methylation at HOXA2 gene cluster by chromatin immunoprecipitation assay; assay type: functional, cell-based
# MOLM-13 [18] = assay: Down regulation of AC011043.1 gene in human MOLM-13 cells by RNA-sequencing analysis; assay type: functional, cell-based
# MOLM-13 [19] = assay: Inhibition of methylation of H3K79 in human MOLM-13 cells assessed as inhibition of methylation at MEIS1-AS3 gene cluster by chromatin immunoprecipitation assay; assay type: functional, cell-based
# MOLM-13 [20] = assay: Down regulation of MEF2C gene in human MOLM-13 cells by RNA-sequencing analysis; assay type: functional, cell-based
# [21] = target: T1, Protein AF-9 (Homo sapiens) (UniProt P42568); assay: Binding affinity to AF9 in human MOLM-13 cells assessed as thermal stabilization of protein at 60 degree Celsius at 1 uM for 12 hrs by CETSA; assay type: cell-based
# T1 sequence (whole entry): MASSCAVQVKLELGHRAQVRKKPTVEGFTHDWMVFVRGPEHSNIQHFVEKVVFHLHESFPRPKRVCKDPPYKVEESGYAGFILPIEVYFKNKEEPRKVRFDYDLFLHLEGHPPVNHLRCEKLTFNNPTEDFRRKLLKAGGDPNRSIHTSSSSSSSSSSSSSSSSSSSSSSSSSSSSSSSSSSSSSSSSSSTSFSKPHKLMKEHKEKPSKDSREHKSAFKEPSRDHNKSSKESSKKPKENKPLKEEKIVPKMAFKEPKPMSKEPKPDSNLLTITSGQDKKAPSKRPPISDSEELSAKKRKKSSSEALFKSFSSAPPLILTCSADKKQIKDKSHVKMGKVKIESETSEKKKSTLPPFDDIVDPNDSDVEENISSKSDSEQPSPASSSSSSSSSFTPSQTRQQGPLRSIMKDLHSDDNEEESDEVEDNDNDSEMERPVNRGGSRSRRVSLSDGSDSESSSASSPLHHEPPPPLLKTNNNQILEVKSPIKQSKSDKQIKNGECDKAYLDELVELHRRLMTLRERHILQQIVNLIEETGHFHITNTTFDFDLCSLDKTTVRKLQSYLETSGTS
smiles,measurement,setting,value
CNC[C@H](NC(=O)[C@@H](NC(=O)[C@@H]1CCCN1C(=O)CCC(C)C)C(C)C)C(=O)N[C@@H](CC1CCCC1)C(=O)N[C@@H](C)c1nc2cccc(-c3ccccc3)c2[nH]1 ({Pentanoyl(4-Me)}-PV[Dap(Me)][Ala(cPent)]-X1),Activity,MOLM-13 [1],Active
same,Activity,MOLM-13 [2],Active
same,inhibition,MOLM-13 [3],Active
same,Activity,MOLM-13 [4],Active
same,inhibition,MOLM-13 [5],Active
same,inhibition,MOLM-13 [6],Active
same,Activity,MOLM-13 [7],Active
same,inhibition,MOLM-13 [8],Active
same,inhibition,MOLM-13 [9],Active
same,Activity,MOLM-13 [10],Active
same,inhibition,MOLM-13 [11],Active
same,IC50,MOLM-13 [12],70 nM
same,IC50,MOLM-13 [13],382 nM
same,Activity,MOLM-13 [14],Active
same,Activity,MOLM-13 [15],Active
same,inhibition,MOLM-13 [16],Active
same,inhibition,MOLM-13 [17],Active
same,Activity,MOLM-13 [18],Active
same,inhibition,MOLM-13 [19],Active
same,Activity,MOLM-13 [20],Active
same,Activity,[21],Active
